System: not listed separately
Assay: Drug level in mouse brain at 5 mg/kg, iv after 4 hrs
Type: ADME, organism-based
Set-up: dose 5 mg/kg, route intravenous
Conditions: read-out: Drug uptake
`CNCC(=O)N[C@H](c1cc(Cl)ccc1N1CCN(C(=O)[C@H](C)Cc2ccc(Cl)cc2)CC1)C(C)C` showed a concentration at 4 h of 62 ng/g. `COc1cc(Cl)ccc1C[C@@H](C)C(=O)N1CCN(c2c(F)cccc2[C@@H](NC(=O)C2CNC2)C(C)C)CC1` gave a concentration at 4 h of 32 ng/g.

System: not listed separately
Assay: physchem
Conditions: buffer, pH 7.4
Compound `CNCC(=O)N[C@H](c1cc(Cl)ccc1N1CCN(C(=O)[C@H](C)Cc2ccc(Cl)cc2)CC1)C(C)C` has a logD of 4.3. With `COc1cc(Cl)ccc1C[C@@H](C)C(=O)N1CCN(c2c(F)cccc2[C@@H](NC(=O)C2CNC2)C(C)C)CC1` the logD was 2.6.

System: not listed separately
Assay: AUC in mouse at 10 mg/kg, po
Type: ADME, organism-based
Set-up: dose 10 mg/kg, route oral
Conditions: plasma
Work on `CNCC(=O)N[C@H](c1cc(Cl)ccc1N1CCN(C(=O)[C@H](C)Cc2ccc(Cl)cc2)CC1)C(C)C` yielded an AUC of 232 ng·h/mL. Work on `COc1cc(Cl)ccc1C[C@@H](C)C(=O)N1CCN(c2c(F)cccc2[C@@H](NC(=O)C2CNC2)C(C)C)CC1` yielded an AUC of 336 ng·h/mL.

System: not listed separately
Assay: Tmax in mouse at 5 mg/kg, iv and 10 mg/kg, po
Type: ADME, organism-based
Conditions: in vivo
Compound `CNCC(=O)N[C@H](c1cc(Cl)ccc1N1CCN(C(=O)[C@H](C)Cc2ccc(Cl)cc2)CC1)C(C)C` has a Tmax of 0.5 h. `COc1cc(Cl)ccc1C[C@@H](C)C(=O)N1CCN(c2c(F)cccc2[C@@H](NC(=O)C2CNC2)C(C)C)CC1` showed a Tmax of 2 h.

System: Caco-2
Assay: Apparent permeability across human Caco-2 cells
Type: ADME, cell-based
Conditions: not given
In the case of `COc1cc(Cl)ccc1C[C@@H](C)C(=O)N1CCN(c2c(F)cccc2[C@@H](NC(=O)C2CNC2)C(C)C)CC1`, the Papp is reported as 0.2 ×10⁻⁶ cm/s.

System: not listed separately
Assay: Ratio of drug level in brain to plasma in mouse at 5 mg/kg, iv after 4 hrs
Type: ADME, organism-based
Set-up: dose 5 mg/kg, route intravenous
Conditions: not given
With `CNCC(=O)N[C@H](c1cc(Cl)ccc1N1CCN(C(=O)[C@H](C)Cc2ccc(Cl)cc2)CC1)C(C)C` the Kp at 4 h was 1.5. Work on `COc1cc(Cl)ccc1C[C@@H](C)C(=O)N1CCN(c2c(F)cccc2[C@@H](NC(=O)C2CNC2)C(C)C)CC1` yielded a Kp at 4 h of 0.4.

System: not listed separately
Assay: Volume of distribution in mouse at 5 mg/kg, iv and 10 mg/kg, po
Type: ADME, organism-based
Conditions: in vivo
For `CNCC(=O)N[C@H](c1cc(Cl)ccc1N1CCN(C(=O)[C@H](C)Cc2ccc(Cl)cc2)CC1)C(C)C`, the Vd was 16 L/kg. With `COc1cc(Cl)ccc1C[C@@H](C)C(=O)N1CCN(c2c(F)cccc2[C@@H](NC(=O)C2CNC2)C(C)C)CC1` the Vd was 10 L/kg.

System: not listed separately
Assay: Oral bioavailability in mouse at 10 mg/kg
Type: ADME, organism-based
Conditions: in vivo
`CNCC(=O)N[C@H](c1cc(Cl)ccc1N1CCN(C(=O)[C@H](C)Cc2ccc(Cl)cc2)CC1)C(C)C` showed a bioavailability of 13%. `COc1cc(Cl)ccc1C[C@@H](C)C(=O)N1CCN(c2c(F)cccc2[C@@H](NC(=O)C2CNC2)C(C)C)CC1` gave a bioavailability of 5.6%.

System: not listed separately
Assay: Ratio of drug level in brain to plasma in mouse at 5 mg/kg, iv after 1 hr
Type: ADME, organism-based
Set-up: dose 5 mg/kg, route intravenous
Conditions: not given
With `CNCC(=O)N[C@H](c1cc(Cl)ccc1N1CCN(C(=O)[C@H](C)Cc2ccc(Cl)cc2)CC1)C(C)C` the Kp at 1 h was 0.7. For `COc1cc(Cl)ccc1C[C@@H](C)C(=O)N1CCN(c2c(F)cccc2[C@@H](NC(=O)C2CNC2)C(C)C)CC1`, the Kp at 1 h was 0.1.

System: not listed separately
Assay: Cmax in mouse at 5 mg/kg, iv and 10 mg/kg, po
Type: ADME, organism-based
Conditions: in vivo
`CNCC(=O)N[C@H](c1cc(Cl)ccc1N1CCN(C(=O)[C@H](C)Cc2ccc(Cl)cc2)CC1)C(C)C` gave a Cmax of 88 ng/mL. `COc1cc(Cl)ccc1C[C@@H](C)C(=O)N1CCN(c2c(F)cccc2[C@@H](NC(=O)C2CNC2)C(C)C)CC1` showed a Cmax of 104 ng/mL.

System: not listed separately
Assay: Drug level in mouse brain at 5 mg/kg, iv after 1 hr
Type: ADME, organism-based
Set-up: dose 5 mg/kg, route intravenous
Conditions: read-out: Drug uptake
With `COc1cc(Cl)ccc1C[C@@H](C)C(=O)N1CCN(c2c(F)cccc2[C@@H](NC(=O)C2CNC2)C(C)C)CC1` the concentration at 1 h was 51 ng/g.

— ChEMBL document CHEMBL1150275, “Pharmacological and pharmacokinetic characterization of 2-piperazine-alpha-isopropyl benzylamine derivatives as melanocortin-4 receptor antagonists” (Bioorg Med Chem, 2008)
